The results in this text go back to PMC9719519, “Non-classical ferroptosis inhibition by a small molecule targeting PHB2” (Nature Communications, 2022).

Experiment in all cases: biochemical
What all share (design): Eurofins recombinant human kinase profiling, remaining kinase activity as % of control, 10 uM ATP
Conditions in all cases: ATP 10 uM; read-out: %Ctrl@10 μM

The target of one test is T1, CK1ε(h) (Homo sapiens, UniProt P49674).
T1 construct: gene CSNK1E
The essentials: (§1)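 Recombinant human kinases, 401 in total, screened using an outsourced kinase profiling assay.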

A further test has as its target T2, CK2(h) (Homo sapiens, UniProt P68400).
T2 construct: gene CSNK2A1
In a few lines: as §1

For the next test, the target named is CLK3(h) (Homo sapiens, UniProt P49761). In a few lines: as §1
The target in another test is T3, CaMKIV(h) (Homo sapiens, UniProt Q16566).
T3 construct: gene CAMK4
T3 sequence (Q16566 whole entry): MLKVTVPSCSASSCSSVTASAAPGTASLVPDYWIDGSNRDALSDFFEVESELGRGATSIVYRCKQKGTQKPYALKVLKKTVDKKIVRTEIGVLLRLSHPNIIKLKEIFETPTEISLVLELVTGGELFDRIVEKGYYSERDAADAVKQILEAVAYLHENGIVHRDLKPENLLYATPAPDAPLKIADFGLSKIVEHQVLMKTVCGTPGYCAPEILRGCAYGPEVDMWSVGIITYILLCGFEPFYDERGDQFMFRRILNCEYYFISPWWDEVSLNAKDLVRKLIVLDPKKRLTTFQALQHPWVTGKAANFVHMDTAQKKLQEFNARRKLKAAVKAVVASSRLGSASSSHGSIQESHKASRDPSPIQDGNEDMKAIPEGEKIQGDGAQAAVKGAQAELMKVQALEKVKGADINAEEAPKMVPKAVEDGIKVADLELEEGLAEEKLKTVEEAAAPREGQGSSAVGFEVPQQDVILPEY
The essentials:
as §1

A further test has as its target EphA7(h) (Homo sapiens, UniProt Q15375). In a few lines:
as §1

Another test deals with FGFR4(h) (Homo sapiens, UniProt P22455). The essentials: as §1
In a further test the target is T4, GCK(h) (Homo sapiens, UniProt Q12851).
T4 construct: gene MAP4K2
T4 sequence (Q12851 whole entry): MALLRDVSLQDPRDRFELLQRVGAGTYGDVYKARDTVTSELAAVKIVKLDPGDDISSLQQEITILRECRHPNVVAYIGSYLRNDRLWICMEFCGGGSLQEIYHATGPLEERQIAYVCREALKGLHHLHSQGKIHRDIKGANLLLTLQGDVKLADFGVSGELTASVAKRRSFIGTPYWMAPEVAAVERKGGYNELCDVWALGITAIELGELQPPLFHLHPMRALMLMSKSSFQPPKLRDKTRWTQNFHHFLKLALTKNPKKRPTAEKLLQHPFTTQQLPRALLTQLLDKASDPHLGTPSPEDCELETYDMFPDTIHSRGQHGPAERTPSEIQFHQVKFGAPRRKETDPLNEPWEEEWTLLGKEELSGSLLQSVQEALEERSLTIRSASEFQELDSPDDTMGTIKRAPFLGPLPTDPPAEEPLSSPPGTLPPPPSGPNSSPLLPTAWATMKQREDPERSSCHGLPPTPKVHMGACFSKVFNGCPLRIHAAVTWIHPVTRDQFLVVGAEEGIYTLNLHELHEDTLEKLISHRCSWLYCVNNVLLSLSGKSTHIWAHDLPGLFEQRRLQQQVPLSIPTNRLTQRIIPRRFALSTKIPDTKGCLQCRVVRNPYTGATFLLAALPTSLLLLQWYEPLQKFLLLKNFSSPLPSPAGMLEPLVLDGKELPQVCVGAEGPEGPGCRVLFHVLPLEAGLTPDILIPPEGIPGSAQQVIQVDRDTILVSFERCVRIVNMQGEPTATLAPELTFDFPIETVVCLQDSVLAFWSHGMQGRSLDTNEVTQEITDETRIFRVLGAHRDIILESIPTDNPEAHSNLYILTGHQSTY
The essentials: as §1

In the next test the target is T5, GCN2(h) (Homo sapiens, UniProt Q9P2K8).
T5 construct: gene EIF2AK4
In a few lines: as §1

A further test addresses GRK1(h) (Homo sapiens, UniProt Q15835). In a few lines: as §1
A further test has as its target HIPK3(h) (Homo sapiens, UniProt Q9H422). In a few lines:
as §1

In another test the target is T6, IKKε(h) (Homo sapiens, UniProt Q14164).
T6 construct: gene IKBKE
In a few lines:
as §1

The target in the next test is LIMK1(h) (Homo sapiens, UniProt P53667). In a few lines: as §1
The target in another test is T7, MSK2(h) (Homo sapiens, UniProt O75676).
T7 construct: gene RPS6KA4
The essentials: as §1

Another test has as its target NEK2(h) (Homo sapiens, UniProt P51955). In a few lines: as §1
For a further test, the target named is T8, PAR-1Bα(h) (Homo sapiens, UniProt Q7KZI7).
T8 construct: gene MARK2
T8 sequence (Q7KZI7 whole entry): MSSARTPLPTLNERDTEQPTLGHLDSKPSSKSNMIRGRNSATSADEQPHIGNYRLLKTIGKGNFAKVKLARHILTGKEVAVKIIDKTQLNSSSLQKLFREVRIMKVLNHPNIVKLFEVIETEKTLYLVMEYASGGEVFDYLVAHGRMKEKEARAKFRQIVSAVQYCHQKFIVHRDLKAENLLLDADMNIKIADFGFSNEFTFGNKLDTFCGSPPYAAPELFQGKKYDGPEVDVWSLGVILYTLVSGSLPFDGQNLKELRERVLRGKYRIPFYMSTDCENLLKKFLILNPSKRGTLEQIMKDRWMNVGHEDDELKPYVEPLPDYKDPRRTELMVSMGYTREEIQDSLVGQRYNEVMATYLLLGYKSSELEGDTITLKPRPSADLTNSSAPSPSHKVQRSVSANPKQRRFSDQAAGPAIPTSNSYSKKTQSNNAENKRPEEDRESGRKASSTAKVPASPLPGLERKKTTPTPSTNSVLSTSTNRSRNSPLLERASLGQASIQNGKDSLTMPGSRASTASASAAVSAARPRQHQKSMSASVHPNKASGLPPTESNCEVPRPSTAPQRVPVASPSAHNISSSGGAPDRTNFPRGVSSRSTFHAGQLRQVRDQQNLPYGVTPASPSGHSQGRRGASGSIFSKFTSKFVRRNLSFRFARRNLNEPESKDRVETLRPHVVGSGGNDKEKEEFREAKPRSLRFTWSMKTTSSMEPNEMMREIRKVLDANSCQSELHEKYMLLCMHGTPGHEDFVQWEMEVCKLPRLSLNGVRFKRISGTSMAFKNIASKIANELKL
In a few lines:
as §1

Another test deals with T9, Rsk3(h) (Homo sapiens, UniProt Q15349).
T9 construct: gene RPS6KA2
T9 sequence (Q15349 whole entry): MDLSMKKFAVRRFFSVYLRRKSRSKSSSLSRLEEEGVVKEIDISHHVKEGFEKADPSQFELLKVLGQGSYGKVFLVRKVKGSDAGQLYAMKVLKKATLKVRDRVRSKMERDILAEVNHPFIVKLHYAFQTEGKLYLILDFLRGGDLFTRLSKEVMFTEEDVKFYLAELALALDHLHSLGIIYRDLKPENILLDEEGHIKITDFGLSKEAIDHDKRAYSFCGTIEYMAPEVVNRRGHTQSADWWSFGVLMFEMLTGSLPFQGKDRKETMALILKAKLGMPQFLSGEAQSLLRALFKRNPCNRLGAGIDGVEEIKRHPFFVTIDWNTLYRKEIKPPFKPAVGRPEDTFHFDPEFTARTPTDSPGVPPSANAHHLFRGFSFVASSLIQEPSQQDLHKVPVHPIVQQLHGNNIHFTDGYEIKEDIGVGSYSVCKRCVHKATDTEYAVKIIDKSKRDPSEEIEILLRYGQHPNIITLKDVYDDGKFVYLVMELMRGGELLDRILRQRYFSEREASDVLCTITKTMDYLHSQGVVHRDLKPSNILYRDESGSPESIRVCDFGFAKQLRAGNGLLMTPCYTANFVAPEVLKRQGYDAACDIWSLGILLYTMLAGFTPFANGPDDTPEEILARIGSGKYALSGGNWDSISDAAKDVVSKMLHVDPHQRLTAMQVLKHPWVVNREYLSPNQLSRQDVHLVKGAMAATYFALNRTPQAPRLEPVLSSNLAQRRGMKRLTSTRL
In a few lines: as §1

For a further test, the target named is SBK1(h) (Homo sapiens, UniProt Q52WX2). The essentials: as §1
A further test addresses T10, TAO2(h) (Homo sapiens, UniProt Q9UL54).
T10 construct: gene TAOK2
The essentials: as §1

Another test has as its target TGFBR1(h) (Homo sapiens, UniProt P36897). The essentials: as §1
In the next test the target is T11, TRB2(h) (Homo sapiens, UniProt Q92519).
T11 construct: gene TRIB2
T11 sequence (Q92519 whole entry): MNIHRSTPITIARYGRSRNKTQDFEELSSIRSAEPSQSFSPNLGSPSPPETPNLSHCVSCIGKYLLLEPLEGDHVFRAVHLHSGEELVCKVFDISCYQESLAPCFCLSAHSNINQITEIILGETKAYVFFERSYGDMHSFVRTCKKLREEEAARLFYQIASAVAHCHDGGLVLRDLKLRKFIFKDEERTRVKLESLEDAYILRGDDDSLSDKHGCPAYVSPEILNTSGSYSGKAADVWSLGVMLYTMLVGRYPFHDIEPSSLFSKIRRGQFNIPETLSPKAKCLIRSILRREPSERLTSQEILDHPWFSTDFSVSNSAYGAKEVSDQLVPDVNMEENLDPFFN
In a few lines:
as §1

The next test has as its target TSSK4(h) (Homo sapiens, UniProt Q6SA08). The essentials:
as §1

The target in another test is T12, TrkA(h) (Homo sapiens, UniProt P04629).
T12 construct: gene NTRK1
In a few lines: as §1

A further test concerns the target T13, Wee1B(h) (Homo sapiens, UniProt P0C1S8).
T13 construct: gene WEE2
The essentials:
as §1

Sequence of EphA7(h) (Q15375 whole entry): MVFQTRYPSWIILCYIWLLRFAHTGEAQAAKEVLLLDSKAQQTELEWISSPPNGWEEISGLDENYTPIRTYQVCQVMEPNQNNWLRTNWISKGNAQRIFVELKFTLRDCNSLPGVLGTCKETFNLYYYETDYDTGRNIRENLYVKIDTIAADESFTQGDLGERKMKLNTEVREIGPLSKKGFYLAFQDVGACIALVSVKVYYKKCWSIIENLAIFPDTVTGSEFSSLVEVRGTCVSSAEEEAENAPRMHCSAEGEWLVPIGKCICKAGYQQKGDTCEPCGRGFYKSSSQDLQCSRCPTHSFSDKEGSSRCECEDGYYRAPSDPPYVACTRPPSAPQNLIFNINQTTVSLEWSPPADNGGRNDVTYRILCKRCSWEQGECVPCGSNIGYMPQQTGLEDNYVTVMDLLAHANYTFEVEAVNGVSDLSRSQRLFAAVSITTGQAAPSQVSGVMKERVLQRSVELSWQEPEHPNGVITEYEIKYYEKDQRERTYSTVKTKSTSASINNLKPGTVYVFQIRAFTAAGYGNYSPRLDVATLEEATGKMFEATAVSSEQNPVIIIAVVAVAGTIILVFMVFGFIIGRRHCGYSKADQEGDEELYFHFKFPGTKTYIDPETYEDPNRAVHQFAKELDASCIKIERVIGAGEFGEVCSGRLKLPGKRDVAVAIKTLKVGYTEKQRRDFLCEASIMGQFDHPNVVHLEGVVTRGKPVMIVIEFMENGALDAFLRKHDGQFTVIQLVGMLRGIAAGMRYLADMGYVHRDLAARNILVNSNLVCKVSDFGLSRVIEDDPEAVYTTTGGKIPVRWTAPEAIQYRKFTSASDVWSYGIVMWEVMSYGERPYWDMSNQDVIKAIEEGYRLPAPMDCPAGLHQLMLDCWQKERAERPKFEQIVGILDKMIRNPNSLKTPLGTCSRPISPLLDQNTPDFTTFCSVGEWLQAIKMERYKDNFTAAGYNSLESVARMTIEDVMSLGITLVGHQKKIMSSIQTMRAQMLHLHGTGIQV
Sequence of TSSK4(h) (Q6SA08 whole entry): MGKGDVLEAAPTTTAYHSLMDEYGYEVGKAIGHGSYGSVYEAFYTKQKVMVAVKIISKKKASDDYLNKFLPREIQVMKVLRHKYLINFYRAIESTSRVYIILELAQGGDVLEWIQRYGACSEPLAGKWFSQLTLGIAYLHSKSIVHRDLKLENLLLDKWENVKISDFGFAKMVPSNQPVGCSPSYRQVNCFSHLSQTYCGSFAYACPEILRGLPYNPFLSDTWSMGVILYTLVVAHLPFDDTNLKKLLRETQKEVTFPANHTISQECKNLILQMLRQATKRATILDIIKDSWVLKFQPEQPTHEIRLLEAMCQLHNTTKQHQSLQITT
Sequence of NEK2(h) (P51955 whole entry): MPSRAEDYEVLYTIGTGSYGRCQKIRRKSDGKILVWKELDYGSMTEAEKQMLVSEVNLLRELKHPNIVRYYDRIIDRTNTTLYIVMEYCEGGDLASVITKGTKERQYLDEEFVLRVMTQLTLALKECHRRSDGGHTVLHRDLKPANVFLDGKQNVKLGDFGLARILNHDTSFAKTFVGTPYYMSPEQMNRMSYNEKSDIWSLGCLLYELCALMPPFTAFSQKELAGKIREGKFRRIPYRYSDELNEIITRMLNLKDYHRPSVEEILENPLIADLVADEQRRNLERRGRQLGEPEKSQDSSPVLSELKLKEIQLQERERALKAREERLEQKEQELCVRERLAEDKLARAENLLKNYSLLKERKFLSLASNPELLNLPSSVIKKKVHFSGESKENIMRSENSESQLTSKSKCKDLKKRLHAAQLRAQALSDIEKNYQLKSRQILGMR

Take `C1=C(c2nc(-c3cnn(C4CCNCC4)c3)cn3cc(-c4ccccc4)nc23)CCOC1` [YL-939]: the remaining activity at 10 µM was determined as 74% at CK1ε(h); 97% at CK2(h); 96% on CLK3(h); 77% at CaMKIV(h); 99% on EphA7(h); 94% at FGFR4(h). Moreover, the remaining activity at 10 µM on GCK(h) is 76%; at GCN2(h), 67%; on GRK1(h), 109%; at HIPK3(h), 86%; on IKKε(h), 113%; at LIMK1(h) it was 86%. The remaining activity at 10 µM worked out at 90% on MSK2(h); 99% at NEK2(h); 101% at PAR-1Bα(h); 96% at Rsk3(h); 106% on SBK1(h); 90% at TAO2(h). For the same molecule, the remaining activity at 10 µM at TGFBR1(h) turned out to be 101%; at TRB2(h), 59%; at TSSK4(h), 97%; on TrkA(h) it was 75%; at Wee1B(h) it was 92%.
